Patent US5116877A, “Pharmaceutical use for cinnamamide derivatives” (Taisho Pharmaceutical Co., Ltd., priority 1989, dated 1992)

Legend:
[1] = system: mesocephalous decerebrate rididity; test: Inhibition test of the mesocephalous decerebrate rigidity; format: in vivo, male Wistar rats; details: rat
Protocol: Experiment 1 [Inhibition test of the mesocephalous decerebrate rididity]
The rigidity animals were prepared according to the method of Ono et al [Gen. Pharm., vol. 18, page 57-59 (1987)].
Four male Wistar rats weighing 250 to 350 g were used for each group. The animals were anesthetized with ethyl ether and fixed on a brain stereotaxic apparatus to break the midbrain bilaterally (APO, V-3, L ±1.5). The advanced rigidity occurred in the hind limb with awaking from the ethyl ether anesthesia. The test drugs [A; (E)-N-cyclopropyl-3-(3-chlorophenyl)-2-butenamide, B; (E)-N-cyclopropyl-3-(3-fluorophenyl)-2-butenamide and C; cinflumide] dissolved in propylene glycol were each administered intravenously in the amount of 5 mg/kg or 10 mg/kg (0.1 ml per 100 g of rat), and these test drugs suspended in 0.4% aqueous carboxymethylcellulose solution were each administered intraduodenally in the amount of 50 mg/kg (0.1 ml per 100 g of rat) to determine the inhibition time of the rigidity.

[2] = system: Anemic Decerebrate rigidity; test: Inhibition of anemic decerebrate rigidity; format: in vivo, male Wistar rats; details: rat, in polyethylene glycol 400
Protocol: Experiment 2[Inhibition of Anemic Decerebrate rigidity]
The rigidity animals were prepared according to the method of Fukuda et al [Japan J. Pharmacol., vol. 24, page 810-813 (1974)].
Four male Wistar rats weighing 250 to 350 g were used for each group.
The animals were anesthetized with ethyl ether and carotid artery was ligated bilaterally. A round hole was digged in the suboccipital skeleton and the basal artery was coagulated using a bipolar electrocoagulator. The advanced rigidity occurred on the fore limb with awaking from the ethyl ether anesthesia. The drugs [A; (E)-N-cyclopropyl-3-(3-chlorophenyl)-2-butenamide, B; (E)-N-cyclopropyl-3-(3-fluorophenyl)-2-butenamide, and C; cinflumide] dissolved in polyethylene glycol 400 were each administered intravenously in the amount of 5 mg/kg or 10 mg/kg (0.1 ml per 100 g of rat) to determine the inhibition time of the rigidity.

Straub tail reaction = Straub tail reaction (morphine-induced); format: in vivo, male ICR mice; details: mouse, morphine hydrochloride 15 mg/kg s.c.
Protocol: Experiment 3 [Straub tail reaction]
Test was carried out according to the method of Ellis et al [Neuropharmacology, vol. 13, page 211 to (1974)].
Six male ICR mice weighing 20-30 g were used as the animals for each group. The drugs [A; (E)-N-cyclopropyl-3-(3-chlorophenyl)-2-butenamide, and C; cinflumide] suspended in 0.4% aqueous carboxymethylcellulose solution were each administered orally to the animals in the amounts of 50, 70.7, 100 and 140 mg/kg (0.1 ml per 10 g of mouse). After 15 minutes, 15 mg/kg of morphine hydrochloride were administered subcutaneously. After 30 minutes, the tail-raising reaction was determined. The muscle relaxation activity was judged as positive in case where the drug produces the value of less than 45 degrees of the tail-raising's angle, and the inhibition rate was culculated.

[3] = system: spontaneous motor activity; test: Spontaneous motor activity test; format: in vivo, male ICR mice; details: mouse
Protocol: Experiment 4 [Spontaneous motor activity test]
Six male ICR mice weighing 20-30 g were used as the test animals for each group. The test drugs [A: (E)-N-cyclopropyl-3-(3 chlorophenyl)-2-butenamide and B: (E)-N-cyclopropyl-3-(3-fluorophenyl)-2-butenamide] suspended in 0.4% aqueous carboxymethylcellulose solution were each administered orally to mice in the amounts of 50, 70.7 and 100 mg/kg (0.1 ml per 10 g of mouse). The control group were administered with 0.4% aqueous carboxymethylcellulose solution only. After 15 minute, mice were placed in ANIMEX apparatus (manufactured by Muromachi Kikai K.K.) to determine the spontaneous moter activity for 30 minutes

Acute toxicity test = format: in vivo, male ICR mice; details: mouse
Protocol: Experiment 5 [Acute toxicity test]
Ten male ICR mice weighing 25 to 34 g were used. (E)-N-cyclopropyl-3-(3-chlorophenyl)-2-butenamide suspended in 0.4% aqueous carboxymethylcellulose solution was each administered orally to mice in the amount of 0.1 ml per 10 g of mice. […] The LD50 values were more than 1 g/kg p.o.

[4] = J. Med. Chem., vol. 9 (No. 5), 675-681 (1966); cited from earlier work
[5] = Japanese Patent Publication No. 60-56700; among known cinnamamide derivatives; cited from earlier work
[6] = 5 mg/kg i.v., in propylene glycol
[7] = 10 mg/kg i.v., in propylene glycol
[8] = 50 mg/kg i.d., in 0.4% aqueous carboxymethylcellulose
[9] = 50 mg/kg (head: i.v.; text: orally)
[10] = 70.7 mg/kg (head: i.v.; text: orally)
[11] = 100 mg/kg (head: i.v.; text: orally)
[12] = 140 mg/kg (head: i.v.; text: orally)
[13] = 70.7 mg/kg p.o., control of A 2116.0 ± 256.6, of B 2128.7 ± 228.0

SMILES	length of time during which the inhibition action occurs (inhibition time of the rigidity) [1, 6] [min]	length of time during which the inhibition action occurs (inhibition time of the rigidity) [1, 7] [min]	length of time during which the inhibition action occurs (inhibition time of the rigidity) [1, 8] [min]	length of time during which the inhibition occurs (inhibition time of the rigidity) ([2]; 5 mg/kg i.v.) [min]	length of time during which the inhibition occurs (inhibition time of the rigidity) ([2]; 10 mg/kg i.v.) [min]	inhibition rate (Straub tail reaction) (Straub tail reaction; [9]) [%]	inhibition rate (Straub tail reaction) (Straub tail reaction; [10]) [%]	inhibition rate (Straub tail reaction) (Straub tail reaction; [11]) [%]	inhibition rate (Straub tail reaction) (Straub tail reaction; [12]) [%]	Spontaneous motor activity ([3]; 50 mg/kg p.o., control of A 2116.0 ± 256.6) [Counts/30 minutes]	Spontaneous motor activity [3, 13] [Counts/30 minutes]	death (survivals observed for 7 days) (Acute toxicity test; 1 g/kg p.o.)	LD50 at 168 h (Acute toxicity test; in vivo, po) [mg/kg]	sedative or taming action [4]	Spontaneous motor activity ([3]; 100 mg/kg p.o., control of B 2128.7 ± 228.0) [Counts/30 minutes]	muscle relaxing activity [5]
C/C(=C\C(=O)NC1CC1)c1cccc(Cl)c1 [A, (E)-N-cyclopropyl-3-(3-chlorophenyl)-2-butenamide]	13	37	36	9	13	40	40	100	100	1736.0 ± 366.6	1570.2 ± 326.9	no death occurred	> 1000	showing sedative or taming action	–	–
C/C(=C\C(=O)NC1CC1)c1cccc(F)c1 [B, (E)-N-cyclopropyl-3-(3-fluorophenyl)-2-butenamide]	6	12	53	8	12	–	–	–	–	–	2264.2 ± 506.0	–	–	–	1667.8 ± 152.4	–
O=C(/C=C/c1cccc(F)c1)NC1CC1 [C, cinflumide, reference compound]	0	3	0	–	8	0	20	80	100	–	–	–	–	–	–	most preferred effect
